Test system: Male Sprague-Dawley rats trained for cocaine-CPP
Experiment: Cocaine-CPP memory retrieval test, PJ-34 infused before testing
Format: in vivo, rat
Details: intra-CeA infusion, p<0.01

CN(C)CC(=O)Nc1ccc2[nH]c(=O)c3ccccc3c2c1.Cl [PJ-34, N-(6-Oxo-5,6-dihydrophenanthridin-2-yl)-(N,N-dimethylamino)acetamide hydrochloride]
Preference for the cocaine compartment (50 microM, 1.2 microl, tested 30 min after infusion, vs vehicle, FIG. 4A): abolished
Abolished preference for the cocaine compartment in post-conditioning test (test 24 hours later): persisted
Abolished preference for the cocaine compartment in post-conditioning test (test 7 days later): persisted
Abolished preference for the cocaine compartment in post-conditioning test (test 14 days later): persisted
